Values of other authors, collected in patent US11497806B2, “Immunization agents and methods of use” (priority 2014, dated 2022).
Read-outs that look alike come from different tables or passages of the source.

Assays:
transactivator = molecular target: T1, transactivator (Homo sapiens, UniProt P06401); settings: rats
T1 construct: host or cells: rat (in vivo)

luciferase target gene = settings: heat treatment in the presence but not in the absence of mifepristone; FIG. 2

T1 sequence (P06401 640-891, added parts left off): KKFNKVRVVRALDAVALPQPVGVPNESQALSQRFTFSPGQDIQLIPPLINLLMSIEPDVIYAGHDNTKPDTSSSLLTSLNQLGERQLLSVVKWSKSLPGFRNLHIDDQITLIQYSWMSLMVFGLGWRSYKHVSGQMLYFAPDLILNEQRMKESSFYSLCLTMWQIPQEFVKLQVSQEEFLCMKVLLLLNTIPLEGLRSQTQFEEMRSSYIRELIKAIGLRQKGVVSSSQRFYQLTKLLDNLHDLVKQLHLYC

CC#C[C@]1(O)CC[C@H]2[C@@H]3CCC4=CC(=O)CCC4=C3[C@@H](c3ccc(N(C)C)cc3)C[C@@]21C [mifepristone]
Amount reaching an effective concentration (transactivator; i.p.): 5 µg/kg
Amount reaching an effective concentration (transactivator; orally): about 10 μg/kg
Target gene expression after heat treatment (luciferase target gene): resulted in activation of target gene expression
